The NIST ThermoML archive (doi:10.1016/j.jct.2007.05.004)

Test: xn = mol fraction of the nth substance listed
Conditions: 101 kPa, Liquid

O [water] + CCO
x1 = 1
Conditions	viscosity [mPa·s]
293.15 K	1.002
298.15 K	0.89
303.15 K	0.797

CCO [ethanol] + COC(C)=O
x1 = 1
Conditions	mass density [kg/m3]	viscosity [mPa·s]
293.15 K	789.75	1.187
298.15 K	785.46	1.082
303.15 K	781.15	0.987

O [water] + CO
x1 = 1
Conditions	viscosity [mPa·s]
293.15 K	1.003
298.15 K	0.89
303.15 K	0.797

CCO [ethanol] + O
Conditions	mass density, 293.15 K [kg/m3]	mass density, 298.15 K [kg/m3]	mass density, 303.15 K [kg/m3]	viscosity, 293.15 K [mPa·s]	viscosity, 298.15 K [mPa·s]	viscosity, 303.15 K [mPa·s]
x2 = 0	789.75	785.46	781.15	1.187	1.082	0.987
x2 = 0.0501	795.99	791.68	787.35	1.277	1.153	1.046
x2 = 0.0986	802.09	797.77	793.41	1.371	1.232	1.111
x2 = 0.1961	814.88	810.54	806.14	1.549	1.38	1.237
x2 = 0.2961	829.05	824.7	820.29	1.735	1.531	1.357
x2 = 0.3991	845.25	840.94	836.55	1.975	1.659	1.515
x2 = 0.4971	862.82	–	–	2.225	–	–
x2 = 0.5989	884.07	879.89	875.63	2.479	2.115	1.821
x2 = 0.6991	908.69	904.65	900.55	2.705	2.275	1.941
x2 = 0.8001	937.33	933.65	929.9	2.7	2.3	1.937
x2 = 0.8996	965.71	963.24	960.61	2.223	1.86	1.58
x2 = 0.9499	979.28	977.72	975.93	1.63	1.388	1.207

CCOC(C)=O [ethyl acetate] + CCO
Conditions	mass density, 293.15 K [kg/m3]	mass density, 298.15 K [kg/m3]	mass density, 303.15 K [kg/m3]	viscosity, 293.15 K [mPa·s]	viscosity, 298.15 K [mPa·s]	viscosity, 303.15 K [mPa·s]
x2 = 0	900.52	894.43	888.3	0.452	0.426	0.403
x2 = 0.0491	896.91	890.86	884.76	0.45	0.425	0.402
x2 = 0.099	893.14	887.11	881.03	0.452	0.429	0.406
x2 = 0.1958	885.48	879.55	873.57	0.463	0.435	0.412
x2 = 0.2961	877.07	871.22	865.34	0.476	0.448	0.426
x2 = 0.3947	868.09	862.38	856.63	0.497	0.467	0.439
x2 = 0.4948	858.16	852.62	847.03	0.542	0.502	0.467
x2 = 0.5995	846.81	841.47	836.07	0.581	0.543	0.508
x2 = 0.7004	834.71	829.57	824.39	0.66	0.614	0.575
x2 = 0.8004	821.45	816.55	811.61	0.758	0.701	0.65
x2 = 0.9003	806.45	801.82	797.15	0.919	0.843	0.777
x2 = 0.9505	798.36	793.91	789.42	1.048	0.958	0.869

CCOC(C)=O [ethyl acetate] + CO
Conditions	mass density, 293.15 K [kg/m3]	mass density, 298.15 K [kg/m3]	mass density, 303.15 K [kg/m3]	viscosity, 293.15 K [mPa·s]	viscosity, 298.15 K [mPa·s]	viscosity, 303.15 K [mPa·s]
x2 = 0	900.52	894.43	888.3	0.452	0.426	0.403
x2 = 0.0474	898.51	892.43	886.3	0.447	0.422	0.4
x2 = 0.097	896.18	890.12	884.01	0.443	0.418	0.396
x2 = 0.1956	891.18	885.16	879.09	0.442	0.417	0.396
x2 = 0.2999	884.93	878.99	872.98	0.442	0.419	0.398
x2 = 0.3963	878.26	872.38	866.46	0.447	0.421	0.398
x2 = 0.4962	870.14	864.36	858.55	0.453	0.427	0.403
x2 = 0.5963	860.45	854.82	849.15	0.463	0.435	0.41
x2 = 0.6998	848.26	842.81	837.3	0.481	0.451	0.425
x2 = 0.7992	833.88	828.62	823.31	0.504	0.472	0.443
x2 = 0.9005	815.52	810.5	805.45	0.536	0.501	0.469

CCO [ethanol] + CCOC(C)=O
x1 = 1
Conditions	mass density [kg/m3]	viscosity [mPa·s]
293.15 K	789.75	1.187
298.15 K	785.46	1.082
303.15 K	781.15	0.987
